According to patent US11560368B2, “Apoptosis signal-regulating kinase 1 inhibitors and methods of use thereof” (Enanta Pharmaceuticals, Inc., priority 2017, dated 2023):

Molecular target: ASK1 kinase (Homo sapiens (Human), UniProt Q99683)
Experiment: ASK1 kinase inhibition, HTRF KinEASE-STK TR-FRET assay
Format: biochemical
Conditions: 5 nM ASK1, 1 uM STK3 peptide substrate, 100 uM ATP, 3 hours
Description: The ability (IC50) of compounds to inhibit ASK1 kinase activity was determined by HTRF® KinEASE™ Assay System.
ASK1 was purchased from Thermofisher (Catalogue # PV4011), ATP was purchased from Sigma (Catalogue # A7699), HTRF® KinEASE™ Assay System was obtained from Cisbio (Bedford, Mass.). ½ A Area plate was purchased from Perkin Elmer (Catalogue # #6005560). HTRF® KinEASE™-STK is a generic method for measuring serine/threonine kinase activities using a time-resolved fluorescence resonance energy transfer (TR-FRET) immunoassay. The IC50 value for each compound was determined in the presence of compound (various concentration from 0 to 10 μM) and a fixed amount of ATP and peptide substrates. The test compound, 1 uM STK3 peptide substrate, and 5 nM of ASK1 kinase are incubated with kinase reaction buffer containing 50 mM HEPES pH 7.5, 0.01% BRU-35, 10 mM MgCl2, and 1 mM EGTA for 30 minutes. 100 uM ATP is added to start kinase reaction and incubated for 3 hours. The STK3-antibody labeled with Eu^3+-Cryptate and 125 nM streptavidin-XL665 are mixed in a single addition with stop reagents provided by the Cisbio kit used to stop the kinase reaction. Fluorescence is detected using an Envision Multilabeled 2014 reader from PerkinElmer. The Fluorescence is measured at 615 nm (Cryptate) and 665 nm (XL665) and a ratio of 665 nm/615 nm is calculated for each well. […] IC50 was determined by XLfit 5.3. […]

Sequence of ASK1 kinase (Q99683 whole entry): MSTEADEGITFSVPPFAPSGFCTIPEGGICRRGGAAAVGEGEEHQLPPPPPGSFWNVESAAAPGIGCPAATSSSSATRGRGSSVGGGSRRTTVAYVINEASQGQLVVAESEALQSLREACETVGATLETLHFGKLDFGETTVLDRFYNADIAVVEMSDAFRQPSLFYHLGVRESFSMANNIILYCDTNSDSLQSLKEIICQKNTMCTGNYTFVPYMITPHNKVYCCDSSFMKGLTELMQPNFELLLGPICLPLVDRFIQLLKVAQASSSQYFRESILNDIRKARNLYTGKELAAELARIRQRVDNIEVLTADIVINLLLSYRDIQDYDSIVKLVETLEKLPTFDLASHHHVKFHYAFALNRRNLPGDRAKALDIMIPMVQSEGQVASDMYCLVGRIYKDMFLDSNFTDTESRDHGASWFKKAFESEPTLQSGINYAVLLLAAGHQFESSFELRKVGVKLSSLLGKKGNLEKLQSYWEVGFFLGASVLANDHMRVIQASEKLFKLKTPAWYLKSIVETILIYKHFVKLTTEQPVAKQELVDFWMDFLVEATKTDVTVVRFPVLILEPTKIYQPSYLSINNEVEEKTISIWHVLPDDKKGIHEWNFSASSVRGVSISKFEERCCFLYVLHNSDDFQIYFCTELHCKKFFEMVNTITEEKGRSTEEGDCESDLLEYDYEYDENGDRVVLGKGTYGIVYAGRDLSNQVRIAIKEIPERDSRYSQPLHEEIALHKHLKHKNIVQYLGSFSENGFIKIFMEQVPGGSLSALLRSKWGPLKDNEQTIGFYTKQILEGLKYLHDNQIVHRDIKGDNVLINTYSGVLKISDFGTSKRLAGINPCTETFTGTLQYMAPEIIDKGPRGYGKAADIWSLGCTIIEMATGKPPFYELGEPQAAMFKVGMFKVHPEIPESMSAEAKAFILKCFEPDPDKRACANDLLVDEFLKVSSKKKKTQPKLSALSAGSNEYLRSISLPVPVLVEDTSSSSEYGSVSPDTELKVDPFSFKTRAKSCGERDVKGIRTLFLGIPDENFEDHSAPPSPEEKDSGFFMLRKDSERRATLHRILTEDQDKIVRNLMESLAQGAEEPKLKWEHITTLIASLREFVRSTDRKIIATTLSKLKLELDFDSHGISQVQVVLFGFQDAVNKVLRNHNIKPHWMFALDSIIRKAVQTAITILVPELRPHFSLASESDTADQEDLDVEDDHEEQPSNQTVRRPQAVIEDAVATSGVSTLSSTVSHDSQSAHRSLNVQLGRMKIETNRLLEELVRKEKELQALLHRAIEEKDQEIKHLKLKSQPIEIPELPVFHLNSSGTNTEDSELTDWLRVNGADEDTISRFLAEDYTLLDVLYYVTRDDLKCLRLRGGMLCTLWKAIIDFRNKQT

An IC50 of 100 to 1000 nM was found for `Cc1cc(F)c(C(=O)Nc2cccc(-c3nnnn3C(C)C)n2)cc1-n1cnc(C(F)(F)F)c1` [Example 2b] in this work.
